Source: PubChem BioAssay AID1963971 (Molecular Pharmacology Branch, DTP, NCI, 2024)

Test system: 953936-095-R-J2-PDC spheroids with HUVEC/MSC, viability
Assay: Anticancer human tumor 953936-095-R-J2-PDC patient-derived cervical squamous cell carcinoma cell line growth inhibition [PI3K]
Conditions: for IC50: curve of first compound; for viability, T/C: stronger effect = lower value
Outline: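 Three cell types, namely tumor cells, endothelial cells and mesenchymal stem cells, formed each spheroid. Combinations with four PI3K inhibitors were screened at clinically achievable concentrations decreasing by half-log, and spheroid viability was recorded.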

[1] = second compound 0.0316 µM, first compound 0.0316 µM
[2] = second compound 0.0316 µM, first compound 0.1 µM
[3] = second compound 0.0316 µM, first compound 0.316 µM
[4] = second compound 0.0316 µM, first compound 1 µM
[5] = second compound 0.0316 µM, first compound 3.16 µM
[6] = second compound 0.0316 µM, first compound 10 µM
[7] = second compound 0.1 µM, first compound 0.0316 µM
[8] = second compound 0.1 µM, first compound 0.1 µM
[9] = second compound 0.1 µM, first compound 0.316 µM
[10] = second compound 0.1 µM, first compound 1 µM
[11] = second compound 0.1 µM, first compound 3.16 µM
[12] = second compound 0.1 µM, first compound 10 µM
[13] = second compound 0.316 µM, first compound 0.0316 µM
[14] = second compound 0.316 µM, first compound 0.1 µM
[15] = second compound 0.316 µM, first compound 0.316 µM
[16] = second compound 0.316 µM, first compound 1 µM
[17] = second compound 0.316 µM, first compound 3.16 µM
[18] = second compound 0.316 µM, first compound 10 µM
[19] = second compound 1 µM, first compound 0.0316 µM
[20] = second compound 1 µM, first compound 0.1 µM
[21] = second compound 1 µM, first compound 0.316 µM
[22] = second compound 1 µM, first compound 1 µM
[23] = second compound 1 µM, first compound 3.16 µM
[24] = second compound 1 µM, first compound 10 µM
[25] = second compound 3.16 µM, first compound 0.0316 µM
[26] = second compound 3.16 µM, first compound 0.1 µM
[27] = second compound 3.16 µM, first compound 0.316 µM
[28] = second compound 3.16 µM, first compound 1 µM
[29] = second compound 3.16 µM, first compound 3.16 µM
[30] = second compound 3.16 µM, first compound 10 µM
[31] = second compound 10 µM, first compound 0.0316 µM
[32] = second compound 10 µM, first compound 0.1 µM
[33] = second compound 10 µM, first compound 0.316 µM
[34] = second compound 10 µM, first compound 1 µM
[35] = second compound 10 µM, first compound 3.16 µM
[36] = second compound 10 µM, first compound 10 µM
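Also: spheroids exposed to compounds for seven days before read-out.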

C=CC(=O)N1CCN(c2nc(=O)n(-c3c(C)ccnc3C(C)C)c3nc(-c4c(O)cccc4F)c(F)cc23)C(C)C1 (stereo not drawn) + CC(Nc1ncnc2nc[nH]c12)c1cc2cccc(Cl)c2c(=O)n1-c1ccccc1
IC50 (second compound 0.0316 µM): > 10 µM
IC50 (second compound 0.1 µM): > 10 µM
IC50 (second compound 0.316 µM): > 10 µM
IC50 (second compound 1 µM): > 10 µM
IC50 (second compound 3.16 µM): > 10 µM
IC50 (second compound 10 µM): > 10 µM
viability, T/C [1]: 92.8%
viability, T/C [2]: 112%
viability, T/C [3]: 121%
viability, T/C [4]: 119%
viability, T/C [5]: 118%
viability, T/C [6]: 129%
viability, T/C [7]: 104%
viability, T/C [8]: 108%
viability, T/C [9]: 110%
viability, T/C [10]: 122%
viability, T/C [11]: 132%
viability, T/C [12]: 111%
viability, T/C [13]: 94.2%
viability, T/C [14]: 106%
viability, T/C [15]: 111%
viability, T/C [16]: 118%
viability, T/C [17]: 113%
viability, T/C [18]: 128%
viability, T/C [19]: 91.1%
viability, T/C [20]: 97.7%
viability, T/C [21]: 99%
viability, T/C [22]: 118%
viability, T/C [23]: 110%
viability, T/C [24]: 113%
viability, T/C [25]: 85%
viability, T/C [26]: 79.2%
viability, T/C [27]: 79.7%
viability, T/C [28]: 88.1%
viability, T/C [29]: 107%
viability, T/C [30]: 105%
viability, T/C [31]: 63.7%
viability, T/C [32]: 67%
viability, T/C [33]: 62.3%
viability, T/C [34]: 82.6%
viability, T/C [35]: 85.3%
viability, T/C [36]: 81%

CC(Cn1ccc(-c2ccc(C#N)c(Cl)c2)n1)NC(=O)c1cc(C(C)O)[nH]n1 (stereo not drawn) + CC(Nc1ncnc2nc[nH]c12)c1cc2cccc(Cl)c2c(=O)n1-c1ccccc1
IC50 (second compound 0.0316 µM): > 10 µM
IC50 (second compound 0.1 µM): > 10 µM
IC50 (second compound 0.316 µM): > 10 µM
IC50 (second compound 1 µM): > 10 µM
IC50 (second compound 3.16 µM): > 10 µM
IC50 (second compound 10 µM): > 10 µM
viability, T/C [1]: 97.5%
viability, T/C [2]: 100%
viability, T/C [3]: 101%
viability, T/C [4]: 91.1%
viability, T/C [5]: 108%
viability, T/C [6]: 96%
viability, T/C [7]: 98.4%
viability, T/C [8]: 106%
viability, T/C [9]: 93.6%
viability, T/C [10]: 109%
viability, T/C [11]: 101%
viability, T/C [12]: 93.5%
viability, T/C [13]: 107%
viability, T/C [14]: 85.7%
viability, T/C [15]: 90.8%
viability, T/C [16]: 88.6%
viability, T/C [17]: 92.8%
viability, T/C [18]: 93.4%
viability, T/C [19]: 98.2%
viability, T/C [20]: 91.7%
viability, T/C [21]: 91.7%
viability, T/C [22]: 94.4%
viability, T/C [23]: 97.7%
viability, T/C [24]: 90.1%
viability, T/C [25]: 83.7%
viability, T/C [26]: 73.6%
viability, T/C [27]: 72.2%
viability, T/C [28]: 75.9%
viability, T/C [29]: 79.9%
viability, T/C [30]: 70.7%
viability, T/C [31]: 55.7%
viability, T/C [32]: 56%
viability, T/C [33]: 62.8%
viability, T/C [34]: 60.5%
viability, T/C [35]: 59.3%
viability, T/C [36]: 58.8%

Cn1ncc(Cl)c1-c1cc(C(=O)NC(CN)Cc2cccc(F)c2)sc1Cl (stereo not drawn) + CC(Nc1ncnc2nc[nH]c12)c1cc2cccc(Cl)c2c(=O)n1-c1ccccc1
IC50 (second compound 0.0316 µM): 0.63 µM
IC50 (second compound 0.1 µM): 0.617 µM
IC50 (second compound 0.316 µM): 0.547 µM
IC50 (second compound 1 µM): 0.49 µM
IC50 (second compound 3.16 µM): 0.467 µM
IC50 (second compound 10 µM): 0.146 µM
viability, T/C [1]: 96.5%
viability, T/C [2]: 90.2%
viability, T/C [3]: 67.9%
viability, T/C [4]: 36.9%
viability, T/C [5]: 21.8%
viability, T/C [6]: 12%
viability, T/C [7]: 95.2%
viability, T/C [8]: 90%
viability, T/C [9]: 67%
viability, T/C [10]: 37.5%
viability, T/C [11]: 20%
viability, T/C [12]: 14.9%
viability, T/C [13]: 94.1%
viability, T/C [14]: 81.6%
viability, T/C [15]: 58.4%
viability, T/C [16]: 40%
viability, T/C [17]: 22.4%
viability, T/C [18]: 12.6%
viability, T/C [19]: 95.5%
viability, T/C [20]: 83.5%
viability, T/C [21]: 58.1%
viability, T/C [22]: 36.3%
viability, T/C [23]: 18.1%
viability, T/C [24]: 13.5%
viability, T/C [25]: 82.3%
viability, T/C [26]: 77.8%
viability, T/C [27]: 56.7%
viability, T/C [28]: 34.4%
viability, T/C [29]: 18%
viability, T/C [30]: 8.95%
viability, T/C [31]: 55.5%
viability, T/C [32]: 54.5%
viability, T/C [33]: 42.9%
viability, T/C [34]: 30.5%
viability, T/C [35]: 14.6%
viability, T/C [36]: 5.78%

Cn1nccc1Nc1nccc(-c2ccn(C(CO)c3ccc(Cl)c(F)c3)c(=O)c2)n1 (stereo not drawn) + CC(Nc1ncnc2nc[nH]c12)c1cc2cccc(Cl)c2c(=O)n1-c1ccccc1
IC50 (second compound 0.0316 µM): > 10 µM
IC50 (second compound 0.1 µM): > 10 µM
IC50 (second compound 0.316 µM): > 10 µM
IC50 (second compound 1 µM): > 10 µM
IC50 (second compound 3.16 µM): > 10 µM
IC50 (second compound 10 µM): > 10 µM
viability, T/C [1]: 90.7%
viability, T/C [2]: 100%
viability, T/C [3]: 92%
viability, T/C [4]: 102%
viability, T/C [5]: 88.3%
viability, T/C [6]: 80.1%
viability, T/C [7]: 94.3%
viability, T/C [8]: 90.6%
viability, T/C [9]: 91%
viability, T/C [10]: 90.8%
viability, T/C [11]: 88%
viability, T/C [12]: 66%
viability, T/C [13]: 98.2%
viability, T/C [14]: 97.2%
viability, T/C [15]: 91.6%
viability, T/C [16]: 83.8%
viability, T/C [17]: 75.6%
viability, T/C [18]: 73.6%
viability, T/C [19]: 102%
viability, T/C [20]: 76.9%
viability, T/C [21]: 95.9%
viability, T/C [22]: 86.1%
viability, T/C [23]: 81.4%
viability, T/C [24]: 82.4%
viability, T/C [25]: 74.6%
viability, T/C [26]: 69.9%
viability, T/C [27]: 70.7%
viability, T/C [28]: 76.4%
viability, T/C [29]: 68.8%
viability, T/C [30]: 77.3%
viability, T/C [31]: 53.7%
viability, T/C [32]: 52.3%
viability, T/C [33]: 57.4%
viability, T/C [34]: 51.6%
viability, T/C [35]: 51.1%
viability, T/C [36]: 56.9%
